IC50 data for 31 compounds are collected here from patent US20240327389A1, “LACTONE AND LACTAM CONTAINING COMPOUNDS USEFUL AS IMMUNOMODULATORS” (BRISTOL-MYERS SQUIBB COMPANY, priority 2021, published 2024).

A word on the IC50: it is the concentration that gives 50% inhibition. A lower IC50 goes with greater potency in that assay.

This assay deals with PD-1/PD-L1 interaction (PD-1-Ig / PD-L1-His) (Homo sapiens (Human), UniProt Q9NZQ7). Briefly: PD-1/PD-L1 Homogenous Time-Resolved Fluorescence (HTRF) binding assay. Conditions: PD-L1-His 10 nM final, PD-1-Ig 20 nM final. From the text: The ability of the compounds of the invention to bind to PD-L1 was investigated using a PD-1/PD-L1 Homogenous Time-Resolved Fluorescence (HTRF) binding assay.
Sequence of PD-1/PD-L1 interaction (PD-1-Ig / PD-L1-His) (Q9NZQ7 18-239): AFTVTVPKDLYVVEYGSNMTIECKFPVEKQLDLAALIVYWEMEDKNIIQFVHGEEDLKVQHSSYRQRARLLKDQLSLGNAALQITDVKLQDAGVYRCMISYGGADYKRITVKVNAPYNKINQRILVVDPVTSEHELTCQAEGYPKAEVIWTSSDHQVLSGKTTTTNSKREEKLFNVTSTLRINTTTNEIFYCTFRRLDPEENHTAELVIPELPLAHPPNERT
The interaction of PD-1 and PD-L1 can be assessed using soluble, purified preparations of the extracellular domains of the two proteins. The PD-1 and PD-L1 protein extracellular domains were expressed as fusion proteins with detection tags, for PD-1, the tag was the Fc portion of Immunoglobulin (PD-1-Ig) and for PD-L1 it was the 6 histidine motif (PD-L1-His). All binding studies were performed in an HTRF assay buffer consisting of dPBS supplemented with 0.1% […] bovine serum albumin and 0.05% (v/v) Tween-20. For the h/PD-L1-His binding assay, inhibitors were pre-incubated with PD-L1-His (10 nM final) for 15 m in 4 μl of assay buffer, followed by addition of PD-1-Ig (20 nM final) in 1 μl of assay buffer and further incubation for 15 m. HTRF detection was achieved using europium crypate-labeled anti-Ig (1 nM final) and allophycocyanin (APC) labeled anti-His (20 nM final). Antibodies were diluted in HTRF detection buffer and 5 μl was dispensed on top of the binding reaction. The reaction mixture was allowed to equilibrate for 30 minutes and the resulting signal (665 nm/620 nm ratio) was obtained using an EnVision fluorometer. Additional binding assays were established between the human proteins PD-1-Ig/PD-L2-His (20 & 5 nM, respectively) and CD80-His/PD-L1-Ig (100 & 10 nM, respectively).
Recombinant Proteins: Human PD-1 (25-167) with a C-terminal human Fc domain of immunoglobulin G (Ig) epitope tag [hPD-1 (25-167)-3S-IG] and human PD-L1 (18-239) with a C-terminal His epitope tag [hPD-L1(18-239)-TVMV-His] were expressed in HEK293T cells and purified sequentially by ProteinA affinity chromatography and size exclusion chromatography. Human PD-L2-His and CD80-His was obtained through commercial sources.
Homogenous Time-Resolved Fluorescence (HTRF) Assays of Binding of Soluble PD-1 to Soluble PD-L1. Soluble PD-1 and soluble PD-L1 refers to proteins with carboxyl-end truncations that remove the transmembrane-spanning regions and are fused to heterologous sequences, specifically the Fc portion of the human immunoglobuling G sequence (Ig) or the hexahistidine epitope tag (His). All binding studies were performed in an HTRF assay buffer consisting of dPBS supplemented with 0.1% (w/v) bovine serum albumin and 0.05% (v/v) Tween-20. For the PD-1-Ig/PD-L1-His binding assay, inhibitors were pre-incubated with PD-L1-His (10 nM final) for 15 m in 4 μl of assay buffer, followed by addition of PD-1-Ig (20 nM final) in 1 μl of assay buffer and further incubation for 15 m. PD-L1 fusion proteins from either human, cynomologous macaques, mouse, or other species were used. HTRF detection was achieved using europium crypate-labeled anti-Ig monoclonal antibody (1 nM final) and allophycocyanin (APC) labeled anti-His monoclonal antibody (20 nM final). Antibodies were diluted in HTRF detection buffer and 5 μl was dispensed on top of binding reaction. The reaction was allowed to equilibrate for 30 minutes and signal (665 nm/620 nm ratio) was obtained using an EnVision fluorometer. Additional binding assays were established between PD-1-Ig/PD-L2-His (20 and 5 nM, respectively), CD80-His/PD-L1-Ig (100 and 10 nM, respectively) and CD80-His/CTLA4-Ig (10 and 5 nM, respectively).
Recombinant Proteins. Carboxyl-truncated human PD-1 (amino acids 25-167) with a C-terminal human Ig epitope tag [hPD-1 (25-167)-3S-IG] and human PD-L1 (amino acids 18-239) with a C-terminal His epitope tag [hPD-L1(19-239)-tobacco vein mottling virus protease cleavage site (TVMV)-His] were expressed in HEK293T cells and purified sequentially by recombinant Protein A affinity chromatography and size exclusion chromatography. Human PD-L2-His (Sino Biologicals), CD80-His (Sino Biologicals), CTLA4-Ig (RnD Systems) were all obtained through commercial sources.
A general note: In TR-FRET formats the signal depends on donor and acceptor labels being close together.
Turning to `COc1cc(OCc2cccc(-c3cccc(OCC4CCCN(C)C4)c3Cl)c2C)c(Cl)cc1CNC1CCOC1=O` (stereo not shown) [Compound 1032], the IC50 was 7.8 nM.

`Cc1c(COc2cc(OCc3cncc(C#N)c3)c(CN[C@H]3CCCNC3=O)cc2Cl)cccc1-c1cccc(OCC2CCCN(C)C2)c1Cl` (stereo partly shown) [Compound 1013]: the IC50 is 4 nM.

On to `Cc1c(COc2cc(OCc3cncc(C#N)c3)c(CNC3(C)CC(C)(C)OC3=O)cc2Cl)cccc1-c1cccc(COc2cc(OCc3cncc(C#N)c3)c(CNC3(C)CC(C)(C)OC3=O)cc2Cl)c1C` (stereo not shown) [Compound 1025], for which the IC50 is more than 10000 nM.

On to `Cc1c(COc2cc(OCc3cncc(C#N)c3)c(CNC3CC(C)OC3=O)cc2Cl)cccc1-c1cccc(OCC2CCCN(C)C2)c1Cl` (stereo not shown) [Compound 1006], for which the IC50 came out at 2.6 nM.

Turning to `Cc1c(COc2cc(OCc3cncc(C#N)c3)c(CNC3C(=O)OCC3(C)C)cc2Cl)cccc1-c1cccc(OCC2CCCN(C)C2)c1Cl` (stereo not shown) [Compound 1008], the IC50 stood at 4.4 nM.

As to `CC(=O)N(Cc1cc(Cl)c(COc2cccc(-c3cccc(COc4cc(OCc5cncc(C#N)c5)c(CN(C(C)=O)[C@@H]5COC(=O)C5)cc4Cl)c3C)c2C)cc1OCc1cncc(C#N)c1)[C@@H]1COC(=O)C1` [Compound 1050], the IC50 is 47.3 nM.

Take `Cc1c(COc2cc(OCc3cncc(C#N)c3)c(CNC3C(=O)OCC3(C)C)cc2Cl)cccc1-c1cccc(COc2cc(OCc3cncc(C#N)c3)c(CNC3C(=O)OCC3(C)C)cc2Cl)c1C` (stereo not shown) [Compound 1023]: the half-inhibitory concentration (IC50) was more than 10000 nM.

`Cc1c(COc2cc(OCc3cncc(C#N)c3)c(CN[C@H]3CCOC3=O)cc2Cl)cccc1-c1cccc(OCC2CCCN(C)C2)c1Cl` (stereo partly shown) [Compound 1001] registered an IC50 of 2.7 nM.

Compound `COc1cc(OCc2cccc(-c3cccc(OCC4CCCN(C)C4)c3Cl)c2C)c(Cl)cc1CNC1CCC(=O)NC1=O` (stereo not shown) [Compound 1046] came in with an IC50 of 3.1 nM.

`Cc1c(COc2cc(OCc3cncc(C#N)c3)c(CNC3CC(=O)OC3(C)C)cc2Cl)cccc1-c1cccc(COc2cc(OCc3cncc(C#N)c3)c(CNC3CC(=O)OC3(C)C)cc2Cl)c1C` (stereo not shown) [Compound 1021] returned an IC50 of 121 nM.

`Cc1c(COc2cc(O)c(CNC3CC(C)OC3=O)cc2Cl)cccc1-c1cccc(OCC2CCCN(C)C2)c1Cl` (stereo not shown) [Compound 1030] registered an IC50 of 80.1 nM.

On to `Cc1c(COc2cc(OCc3cncc(C#N)c3)c(CN(CC3CC3)C3(C)CCOC3=O)cc2Cl)cccc1-c1cccc(COc2cc(OCc3cncc(C#N)c3)c(CN(CC3CC3)C3(C)CCOC3=O)cc2Cl)c1C` (stereo not shown) [Compound 1052], for which the IC50 was 2500 nM.

`Cc1c(COc2cc(OCc3cncc(C#N)c3)c(CNC3CCOC3=O)cc2Cl)cccc1-c1cccc(COc2cc(OCc3cncc(C#N)c3)c(CNC3CCOC3=O)cc2Cl)c1C` (stereo not shown) [Compound 1018] gave an IC50 of 15 nM.

Consider `COc1cc(OCc2cccc(-c3cccc(OCC4CCCN(C)C4)c3Cl)c2C)c(Cl)cc1CNC1(C)CCOC1=O` (stereo not shown) [Compound 1036], for which the IC50 came out at 7.3 nM.

The compound `COc1cc(OCc2cccc(-c3cccc(OCC4CCCN(C)C4)c3Cl)c2C)c(Cl)cc1CNC1CCNC1=O` (stereo not shown) [Compound 1038] had an IC50 of 4.8 nM.

`Cc1c(COc2cc(OCc3cncc(C#N)c3)c(CN(C)C3CC(C)OC3=O)cc2Cl)cccc1-c1cccc(COc2cc(OCc3cncc(C#N)c3)c(CN(C)C3CC(C)OC3=O)cc2Cl)c1C` (stereo not shown) [Compound 1053] registered an IC50 of 1470 nM.

`C=C1COc2cc(OCc3cccc(-c4cccc(OCC5CCCN(C)C5)c4Cl)c3C)c(Cl)cc2CN(C2CCOC2=O)C1` (stereo not shown) [Compound 1048] yielded an IC50 of 3830 nM.

For `Cc1c(COc2cc(OCc3cncc(C#N)c3)c(CNC3(C)CCOC3=O)cc2Cl)cccc1-c1cccc(COc2cc(OCc3cncc(C#N)c3)c(CNC3(C)CCOC3=O)cc2Cl)c1C` (stereo not shown) [Compound 1016], the IC50 was determined as 110 nM.

Compound `Cc1c(COc2cc(OCc3cncc(C#N)c3)c(CN[C@@H]3CCOC3=O)cc2Cl)cccc1-c1cccc(OCC2CCCN(C)C2)c1Cl` (stereo partly shown) [Compound 1002] showed an IC50 of 3.5 nM.

Compound `Cc1c(COc2cc(OCc3cncc(C#N)c3)c(CN[C@@H]3COC(=O)C3)cc2Cl)cccc1-c1cccc(OCC2CCCN(C)C2)c1Cl` (stereo partly shown) [Compound 1004] had an IC50 of 3.1 nM.

`CCN(Cc1cc(Cl)c(OCc2cccc(-c3cccc(COc4cc(OCc5cncc(C#N)c5)c(CN(CC)C5CC(C)OC5=O)cc4Cl)c3C)c2C)cc1OCc1cncc(C#N)c1)C1CC(C)OC1=O` (stereo not shown) [Compound 1054] had an IC50 of 2520 nM.

Compound `COc1cc(OCc2cccc(-c3cccc(OCC4CCCN(C)C4)c3Cl)c2C)c(Cl)cc1CNC1C(=O)OCC1(C)C` (stereo not shown) [Compound 1037] came in with an IC50 of 136 nM.

For `Cc1c(COc2cc(OCc3cncc(C#N)c3)c(CN[C@@H]3CCOC3=O)cc2Cl)cccc1-c1cccc(COc2cc(OCc3cncc(C#N)c3)c(CN[C@@H]3CCOC3=O)cc2Cl)c1C` [Compound 1020], the 50% inhibitory concentration (IC50) was found to be 7.3 nM.

`COc1cc(OCc2cccc(-c3cccc(OCC4CCCN(C)C4)c3Cl)c2C)c(Cl)cc1CNC1(C)CC(C)(C)OC1=O` (stereo not shown) [Compound 1039] displayed an IC50 of 19.6 nM.

`Cc1c(COc2cc3c(cc2Cl)CN(C2CCOC2=O)C(=O)CO3)cccc1-c1cccc(OCC2CCCN(C)C2)c1Cl` (stereo not shown) [Compound 1047] showed an IC50 of 388 nM.

`COc1cc(OCc2cccc(-c3cccc(OCC4CCCN(C)C4)c3Cl)c2C)c(Cl)cc1CN[C@H]1CCNC1=O` (stereo partly shown) [Compound 1044] gave an IC50 of 5.6 nM.

The compound `Cc1c(COc2cc(OCc3cncc(C#N)c3)c(CNC3CCC(=O)NC3=O)cc2Cl)cccc1-c1cccc(OCC2CCCN(C)C2)c1Cl` (stereo not shown) [Compound 1015] returned an IC50 of 2.4 nM.

Regarding `Cc1c(COc2cc(OCc3cncc(C#N)c3)c(CN[C@H]3COC(=O)C3)cc2Cl)cccc1-c1cccc(OCC2CCCN(C)C2)c1Cl` (stereo partly shown) [Compound 1003], the IC50 is 2 nM.

`COc1cc(OCc2cccc(-c3cccc(OCC4CCCN(C)C4)c3Cl)c2C)c(Cl)cc1CN[C@H]1CCCNC1=O` (stereo partly shown) [Compound 1045] had an IC50 of 3.6 nM.

With `Cc1c(COc2cc(OCc3cncc(C#N)c3)c(CO)cc2Cl)cccc1-c1cccc(COc2cc(OCc3cncc(C#N)c3)c(CNC3(C)CCOC3=O)cc2Cl)c1C` (stereo not shown) [Compound 1017], the IC50 is 112 nM.

The compound `Cc1c(COc2cc(OCc3cncc(C#N)c3)c(CNC3CC(C)(C)OC3=O)cc2Cl)cccc1-c1cccc(COc2cc(OCc3cncc(C#N)c3)c(CNC3CC(C)(C)OC3=O)cc2Cl)c1C` (stereo not shown) [Compound 1022] returned an IC50 of 145 nM.
